Results from PubChem BioAssay AID276 (DTP/NCI, 2004).
Several values for one entry are separate records, joined by “and”; a condition that tells them apart may be missing. Equal entries are not always repeated. Toxic doses and inconclusive results are not listed. Positions of bridges follow the written chain, without caps; N, C: chain ends. Residues, ends and D or L forms follow the SMILES beside them.

Tested on: B6C3F1 mice, Lewis lung carcinoma iv, survival T/C
Assay: NCI In Vivo Anticancer Drug Screen. Data for tumor model Lewis Lung Carcinoma (intravenous) in B6C3F1 mice
Details: endpoint: median survival time, schedule: Q01DX009 (ip), higher = longer survival
Method in brief: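 Mice carrying transplanted tumors received test compound; survival in the treated group was divided by that of the vehicle-treated control group to give the T/C value.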

[1] = dose: 6.25 mg/kg/injection, vehicle: saline with Tween-80
[2] = dose: 12.5 mg/kg/injection, vehicle: saline with Tween-80
[3] = dose: 25.0 mg/kg/injection, vehicle: Klucel (hydroxypropylcellulose) (HPC)
[4] = dose: 50.0 mg/kg/injection, vehicle: Klucel (hydroxypropylcellulose) (HPC)
[5] = dose: 100.0 mg/kg/injection, vehicle: Klucel (hydroxypropylcellulose) (HPC)
[6] = dose: 200.0 mg/kg/injection, vehicle: Klucel (hydroxypropylcellulose) (HPC)
[7] = dose: 25.0 mg/kg/injection, vehicle: saline with Tween-80
[8] = dose: 50.0 mg/kg/injection, vehicle: saline with Tween-80
[9] = dose: 100.0 mg/kg/injection, vehicle: saline with Tween-80
[10] = dose: 200.0 mg/kg/injection, vehicle: saline with Tween-80
[11] = dose: 400.0 mg/kg/injection, vehicle: saline with Tween-80
[12] = dose: 12.5 mg/kg/injection, vehicle: saline
[13] = dose: 25.0 mg/kg/injection, vehicle: saline
[14] = dose: 50.0 mg/kg/injection, vehicle: saline
[15] = dose: 100.0 mg/kg/injection, vehicle: saline
[16] = dose: 200.0 mg/kg/injection, vehicle: saline
[17] = dose: 400.0 mg/kg/injection, vehicle: saline
[18] = dose: 10.0 mg/kg/injection, vehicle: water

## CC[C@@H](C)[C@@H]1NC(=O)C(NC(=O)C(CC(C)C)N(C)C(=O)C2CCCN2C(=O)C(C)O)C(C)OC(=O)C(Cc2ccc(OC)cc2)N(C)C(=O)C2CCCN2C(=O)C(CC(C)C)NC(=O)C(C)C(=O)C(C(C)C)OC(=O)C[C@H]1O (some centres undefined)
dose: 25.0 micrograms/kg/injection, vehicle: distilled water + alcohol
  T/C: 96 % of control
dose: 50.0 micrograms/kg/injection, vehicle: distilled water + alcohol
  T/C: 102 % of control
dose: 100.0 micrograms/kg/injection, vehicle: distilled water + alcohol
  T/C: 98 % of control
dose: 200.0 micrograms/kg/injection, vehicle: distilled water + alcohol
  T/C: 96 % of control
dose: 400.0 micrograms/kg/injection, vehicle: distilled water + alcohol
  T/C: 98 % of control

## CNC(=O)OCc1c(COC(=O)NC)c(-c2ccc(Cl)c(Cl)c2)n2c1Cc1ccccc1C2
dose: 12.5 mg/kg/injection, vehicle: distilled water + Tween-80
  T/C: 102 % of control
dose: 25.0 mg/kg/injection, vehicle: distilled water + Tween-80
  T/C: 114 % of control
dose: 50.0 mg/kg/injection, vehicle: distilled water + Tween-80
  T/C: 101 % of control and 105 % of control

## CC(=O)Nc1ccc(Nc2ccc(C(=C3C=CC(=[N+](C)CCC#N)C=C3)c3ccc(N(C)CCC#N)cc3)cc2)cc1
dose: 0.39 mg/kg/injection, vehicle: saline with Tween-80
  T/C: 102 % of control
dose: 0.78 mg/kg/injection, vehicle: saline with Tween-80
  T/C: 102 % of control
dose: 1.56 mg/kg/injection, vehicle: saline with Tween-80
  T/C: 98 % of control
dose: 3.12 mg/kg/injection, vehicle: saline with Tween-80
  T/C: 104 % of control
[1]
  T/C: 97 % of control
[2]
  T/C: 105 % of control

## COc1cccc2c1C(=O)c1c(O)c3c(c(O)c1C2=O)CC(O)(/C(C)=N/NC(=O)CCC(=O)N/N=C(\C)C1(O)Cc2c(O)c4c(c(O)c2C(OC2CC(N)C(O)C(C)O2)C1)C(=O)c1c(OC)cccc1C4=O)CC3OC1CC(N)C(O)C(C)O1 (centres undefined)
dose: 0.75 mg/kg/injection, vehicle: water
  T/C: 99 % of control and 100 % of control
dose: 1.5 mg/kg/injection, vehicle: water
  T/C: 103 % of control and 105 % of control
dose: 3.0 mg/kg/injection, vehicle: water
  T/C: 101 % of control
dose: 6.0 mg/kg/injection, vehicle: water
  T/C: 105 % of control and 260 % of control
dose: 12.0 mg/kg/injection, vehicle: water
  T/C: 101 % of control and 113 % of control
dose: 24.0 mg/kg/injection, vehicle: water
  T/C: 104 % of control

## C[C@]12CCC(=O)C=C1CC[C@@H]1[C@@H]2C(=O)C[C@@]2(C)[C@H]1CC[C@]2(O)C(=O)CO
[3]
  T/C: 95 % of control
[4]
  T/C: 99 % of control
[5]
  T/C: 98 % of control
[6]
  T/C: 103 % of control
dose: 400.0 mg/kg/injection, vehicle: Klucel (hydroxypropylcellulose) (HPC)
  T/C: 93 % of control

## CN(C)C1C(=O)C(C(=O)NP(=O)(NCCCO)N(CCCl)CCCl)=C(O)C2(O)C(=O)C3=C(O)c4c(O)cccc4C(C)(O)C3CC12 (centres undefined)
[7]
  T/C: 104 % of control
[8]
  T/C: 119 % of control
[9]
  T/C: 93 % of control

## CC(Oc1ccccc1-c1ccccc1)C(=O)N(C)C (centres undefined)
[2]
  T/C: 106 % of control
[7]
  T/C: 110 % of control
[8]
  T/C: 107 % of control
[9]
  T/C: 96 % of control
[10]
  T/C: 101 % of control
[11]
  T/C: 100 % of control

## CCCCCCCCCCCCCCCCP(=O)(OCCOCCCCCC)OCCOCCCCCC
dose: 6.25 mg/kg/injection, vehicle: suspension in saline
  T/C: 100 % of control
dose: 12.5 mg/kg/injection, vehicle: suspension in saline
  T/C: 100 % of control
dose: 25.0 mg/kg/injection, vehicle: suspension in saline
  T/C: 107 % of control
dose: 50.0 mg/kg/injection, vehicle: suspension in saline
  T/C: 102 % of control

## COc1cc(C(=O)N/N=C/c2cccc([N+](=O)[O-])c2)cc(OC)c1OC
[7]
  T/C: 97 % of control
[8]
  T/C: 98 % of control
[9]
  T/C: 105 % of control
[10]
  T/C: 93 % of control
[11]
  T/C: 101 % of control

## Cn1cnc([N+](=O)[O-])c1SCC(=O)O
[12]
  T/C: 100 % of control
[13]
  T/C: 107 % of control
[14]
  T/C: 103 % of control
[15]
  T/C: 93 % of control
[16]
  T/C: 104 % of control
[17]
  T/C: 96 % of control

## C[Si](C)(C)O/C=C1/CCOC1=O
[12]
  T/C: 93 % of control
[13]
  T/C: 101 % of control
[14]
  T/C: 94 % of control
[15]
  T/C: 97 % of control
[16]
  T/C: 91 % of control
[17]
  T/C: 94 % of control

## NCCCC(N)(C(=O)O)C(F)F (centres undefined)
dose: 50.0 mg/kg/injection, vehicle: distilled water + alcohol
  T/C: 100 % of control
dose: 100.0 mg/kg/injection, vehicle: distilled water + alcohol
  T/C: 104 % of control
dose: 200.0 mg/kg/injection, vehicle: distilled water + alcohol
  T/C: 105 % of control
dose: 400.0 mg/kg/injection, vehicle: distilled water + alcohol
  T/C: 103 % of control
dose: 800.0 mg/kg/injection, vehicle: distilled water + alcohol
  T/C: 96 % of control

## CCCCNC(C)C1(O)Cc2c(O)c3c(c(O)c2C(OC2CC(N)C(O)C(C)O2)C1)C(=O)c1c(OC)cccc1C3=O (centres undefined)
[18]
  T/C: 108 % of control
dose: 20.0 mg/kg/injection, vehicle: water
  T/C: 101 % of control
dose: 40.0 mg/kg/injection, vehicle: water
  T/C: 107 % of control
dose: 80.0 mg/kg/injection, vehicle: water
  T/C: 113 % of control

## CCN(CC)c1ccc2[nH]c3c(C(N)=O)cc(=O)c(=O)c=3oc2c1
[2]
  T/C: 90 % of control
[7]
  T/C: 107 % of control
[8]
  T/C: 98 % of control
[9]
  T/C: 93 % of control

## COC(=O)Nc1nc2ccc(SC)cc2c(=O)[nH]1
[3]
  T/C: 99 % of control
[4]
  T/C: 110 % of control
[5]
  T/C: 100 % of control
[6]
  T/C: 110 % of control

## FC(F)(F)c1nc2nc(Cl)c(Cl)nc2[nH]1
[1]
  T/C: 98 % of control
[2]
  T/C: 106 % of control
[7]
  T/C: 106 % of control
[8]
  T/C: 93 % of control

## CCC(C)C1NC(=O)C(CC(C)C)NC(=O)C(C(C)C)NC(=O)C2CSSCC(NC1=O)C(=O)N2 (centres undefined) (cyclo(CCVLI); disulfide 1-2; configuration not given here)
dose: 31.25 micrograms/kg/injection, vehicle: Klucel (hydroxypropylcellulose) (HPC)
  T/C: 93 % of control
dose: 62.5 micrograms/kg/injection, vehicle: Klucel (hydroxypropylcellulose) (HPC)
  T/C: 99 % of control
dose: 125.0 micrograms/kg/injection, vehicle: Klucel (hydroxypropylcellulose) (HPC)
  T/C: 93 % of control
dose: 250.0 micrograms/kg/injection, vehicle: Klucel (hydroxypropylcellulose) (HPC)
  T/C: 98 % of control
dose: 500.0 micrograms/kg/injection, vehicle: Klucel (hydroxypropylcellulose) (HPC)
  T/C: 88 % of control
dose: 1000.0 micrograms/kg/injection, vehicle: Klucel (hydroxypropylcellulose) (HPC)
  T/C: 100 % of control

## COc1cc2oc(=O)ccc2cc1[C@@H]1OC(=O)C2(C)O[C@@H]12 (some centres undefined)
dose: 0.16 mg/kg/injection, vehicle: water
  T/C: 106 % of control
dose: 0.31 mg/kg/injection, vehicle: water
  T/C: 94 % of control and 96 % of control
dose: 0.62 mg/kg/injection, vehicle: water
  T/C: 99 % of control and 112 % of control
dose: 1.25 mg/kg/injection, vehicle: water
  T/C: 91 % of control and 100 % of control
dose: 2.5 mg/kg/injection, vehicle: water
  T/C: 95 % of control and 100 % of control
dose: 5.0 mg/kg/injection, vehicle: water
  T/C: 97 % of control and 98 % of control
[18]
  T/C: 94 % of control
